The structures appear in SMILES notation. Square brackets hold non-standard residues; d marks the D form. Peptide text beside a SMILES is read from it. MeBmt = C/C=C/C[C@@H](C)[C@@H](O)[C@H](NC)C(=O)O; NMeL = CN[C@@H](CC(C)C)C(=O)O; NMeV = CN[C@H](C(=O)O)C(C)C; NMeA = CN[C@@H](C)C(=O)O; dNMeA = CN[C@H](C)C(=O)O; Abu = CC[C@H](N)C(=O)O; Sar = CNCC(=O)O Bounds are passed on as bounds.

T1 sequence (P62937 whole entry, species assumed): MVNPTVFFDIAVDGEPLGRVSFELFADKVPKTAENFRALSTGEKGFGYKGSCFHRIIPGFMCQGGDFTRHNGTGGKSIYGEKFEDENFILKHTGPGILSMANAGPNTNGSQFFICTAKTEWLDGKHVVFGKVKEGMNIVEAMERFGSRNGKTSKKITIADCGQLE

The target in the first experiment is FKBP12 (Homo sapiens, UniProt P62942). Briefly: AlphaLISA: inhibition of binding of biotinylated FK506 to FLAG tagged FKBP12. More on the design: made in house.
FKBP12, sequence (P62942 whole entry, species assumed): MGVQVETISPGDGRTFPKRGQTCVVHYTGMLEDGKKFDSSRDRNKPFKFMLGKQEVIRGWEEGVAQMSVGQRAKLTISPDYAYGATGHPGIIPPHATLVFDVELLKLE
Conditions: not given
On the procedure:
This protocol utilizes Perkin Elmers AlphaLISA technology platform to detect FKBP binders by measuring the inhibition of binding of biotinylated FK506 to FLAG tagged FKBP12.
Add 20 uL of 12.5 nM FKBP-FLAG working stock to each well of the 96-well plate. Add 1 uL of test compound (100% DMSO) to each well of the plate using the Janus MTD head and P20 tips (except control wells). Add 1 uL of DMSO to negative control wells and 1 uL of 50 uM FK506 solution to positive control wells. In the dark, add 20 uL of combined Donor/Acceptor beads to each well. Incubate in the dark for 30 minutes at room temperature. In the dark, add 10 uL of 5 nM biotinylated FK506 working stock to each well. Incubate in the dark for 60 minutes at room temperature. Protect plate from light until reading on Biotek Synergy2 Plate Reader; Alphalisa 96-well protocol (680 excitation/615 emission).
For `CCC(/C=C(\C)C(O)CCC(C)/C=C/C(O)C(C)C1CCC(C)C(O)(C(=O)C(=O)N2CCCCC2C(=O)O)O1)C/C(C)=C/C1=CC(OC)C(O)C=C1` (stereo not shown) [F15], the IC50 was found to be 1930 nM.

Staying with this experiment, now noted: read-out: Binding affinity to FKBP12 (by displacement of FK506).
On to `CC[C@H](Cc1ccccc1)[C@@H]1CCCCCC(=O)[C@@H](C)[C@H](O)[C@@H](C)[C@@H]2CC[C@@H](C)[C@@](O)(O2)C(=O)C(=O)N2CCCC[C@H]2C(=O)O1` [F24, (S)-1-(2-((2R,3R,6S)-6-((2R,3R,4S,6E,9E,11R,12R)-12-benzyl-3,11-dihydroxy-4-methyl-5-oxotetradeca-6,9-dien-2-yl)-2-hydroxy-3-methyltetrahydro-2H-pyran-2-yl)-2-oxoacetyl)piperidine-2-carboxylic acid C-11 lactone], for which the IC50 stood at 0.21 nM.

The subject of a further experiment is HeLa-FKBP12 cells. Briefly: Biosensor cell permeability assay, FKBP binding compounds. Particulars: 72 hrs. The format is cell-based. Here is the method:
This protocol utilizes a modified FKBP or cyclophilin destabilizing mutant to determine the bioactivity of FKBP binding compounds or cyclophilin binding compounds in whole cell assay.
Plate HeLa-FKBP12 cells (for FKBP binding compounds) or HeLa-Cyclophilin A cells (for cyclophilin binding compounds) and seed overnight at 5 k/well (approximately ˜18 hrs.). Using a multi-channel pipet, take out the old media and add ˜125 ul of new media with compounds. Compounds are diluted using DMEM without Phenol Red, 10% FBS, 1× Sodium Pyruvate, 1× Glutamax. Add 125 ul of media with compound per well. Cells are treated with compounds at concentration: 30, 10, 3.33, 1.11, 0.37, 0.12, 0.04 and 0.013 uM. Time points are taken at 72 hrs and plate read using plate reader with excitation/emission: 575/620.
Cell binding/permeability is calculated in fold-change (Total RFU of treated samples/total RFU of DMSO treated samples or total RFU above background (Total RFU minus total RFU of DMSO treated samples).
Regarding `CC[C@H](Cc1ccccc1)[C@@H]1/C=C/C/C=C/C[C@@H](C)[C@H](O)[C@@H](C)[C@@H]2CC[C@@H](C)C(=O)C(O)(O2)C(=O)N2CCC[C@H]2C(=O)O1` [F4], the IC50 is less than 1000 nM.
Compound `CC[C@H](Cc1cccc(O)c1)[C@@H]1/C=C/C/C=C/C[C@@H](C)[C@H](O)[C@@H](C)[C@@H]2CC[C@@H](C)C(=O)C(O)(O2)C(=O)N2CCCC[C@H]2C(=O)O1` [F20] had an IC50 of less than 1000 nM.
Take `CC[C@H](Cc1cccc(O)c1)[C@@H]1/C=C/C=C/CC[C@@H](C)[C@H](O)[C@@H](C)[C@@H]2CC[C@@H](C)[C@@](O)(O2)C(=O)C(=O)N2CCCC[C@H]2C(=O)O1` [F21]: the IC50 was less than 1000 nM.
The compound `CC[C@H](Cc1ccccc1)[C@@H]1/C=C/C=C/CC[C@@H](C)C(=O)[C@@H](C)[C@@H]2CC[C@@H](C)[C@@](O)(O2)C(=O)C(=O)N2CCCC[C@H]2C(=O)O1` [F22] came in with an IC50 greater than 1000 nM.

The next experiment addresses T1, Cyclophilin A (Homo sapiens, UniProt P62937).
T1 construct: made in house
Briefly: biochemical. Format: binding.
Conditions: not given
Here is the method:
This protocol utilizes Perkin Elmers AlphaLISA technology platform to detect cyclosporine analogues by measuring the inhibition of binding of biotinylated Cyclosporin A to FLAG tagged Cyclophilin A.
Add 20 uL of 6 nM Biotinylated CsA working stock to each well of the 96-well plate. Add 1 uL of test compound (100% DMSO) to each well of the plate using the Janus MTD head and P20 tips (except control wells). Add 1 uL of DMSO to negative control wells and 1 uL of 500 uM Cyclosporin A solution to positive control wells. In the dark, add 20 uL of combined Donor/Acceptor beads to each well. Incubate in the dark for 30 minutes at room temperature. […] Incubate in the dark for 60 minutes at room temperature.
As for `C/C=C/C[C@@H](C)[C@@H](O)[C@H]1C(=O)N[C@@H](CC)C(=O)N(C)CC(=O)N(C)[C@H](C)C(=O)N[C@@H](CC(C)C)C(=O)N(C)[C@@H](C)C(=O)N[C@@H](C)C(=O)N[C@H](C)C(=O)N(C)[C@@H](CC(C)C)C(=O)N(C)[C@@H](CC(C)C)C(=O)N(C)[C@@H](C(C)C)C(=O)N1C` [C11] (cyclo([MeBmt][Abu][Sar][dNMeA]L[NMeA]A[dA][NMeL][NMeL][NMeV])), the “% inhibition of CsA binding to Cyclophilin A” value (“% inhibition of CsA binding” below) is 93.73%.
On to `C/C=C/C[C@@H](C)[C@@H](O)[C@H]1C(=O)N[C@@H](CC)C(=O)N(C)CC(=O)N(C)[C@@H](CC(C)C)C(=O)N[C@@H](CC(C)C)C(=O)N(C)[C@@H](C)C(=O)N[C@@H](C)C(=O)N[C@H](C)C(=O)N(C)[C@@H](CC(C)C)C(=O)N(C)[C@@H](CC(C)C)C(=O)N(C)[C@@H](C(C)C)C(=O)N1C` [C14] (cyclo([MeBmt][Abu][Sar][NMeL]L[NMeA]A[dA][NMeL][NMeL][NMeV])), for which the “% inhibition of CsA binding” value came to 90.64%.
For `C/C=C/C[C@@H](C)[C@@H](O)[C@H]1C(=O)N[C@@H](CC)C(=O)N(C)CC(=O)N(C)[C@@H](C)C(=O)N[C@@H](C)C(=O)N(C)CC(=O)N[C@@H](C)C(=O)N[C@H](C)C(=O)N(C)[C@@H](CC(C)C)C(=O)N(C)[C@@H](CC(C)C)C(=O)N(C)[C@@H](C(C)C)C(=O)N1C` [C18] (cyclo([MeBmt][Abu][Sar][NMeA]A[Sar]A[dA][NMeL][NMeL][NMeV])), the “% inhibition of CsA binding” value came out at 97.88%.

The experiment is the same for the next values; noted with them: read-out: IC50 value of CsA binding to Cyclophilin A.
In the case of `C/C=C/C[C@@H](C)[C@@H](O)[C@H]1C(=O)N[C@@H](CC)C(=O)N(C)CC(=O)N(C)[C@H](C)C(=O)N[C@@H](CC(C)C)C(=O)N(C)[C@@H](C)C(=O)N[C@@H](C)C(=O)N[C@H](C)C(=O)N(C)[C@@H](CC(C)C)C(=O)N(C)[C@@H](CC(C)C)C(=O)N(C)[C@@H](C(C)C)C(=O)N1C` [C11] (cyclo([MeBmt][Abu][Sar][dNMeA]L[NMeA]A[dA][NMeL][NMeL][NMeV])), the IC50 is less than 2000 nM.
